Results as given in PubChem BioAssay (NCI).
Where “and” joins values, the source holds several entries; their conditions need not be identical. Equal values may be shown once.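 Grown in 96-well plates, cells were treated for 48 hours with each compound at five concentrations. Insufficient inhibition: endpoint recorded as highest concentration tested. GI50 is the concentration that inhibits growth by half. TGI marks complete inhibition of growth.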

Tests used:
Test in all cases: NCI tumour cell line growth inhibition, 48 h
[1] = test system: MDA-N
[2] = test system: PC-3 prostate
[3] = test system: T-47D breast
[4] = test system: RXF-631 renal
[5] = test system: DMS 114 small cell lung
[6] = test system: HOP-18 NSCLC
[7] = test system: LXFL 529 NSCLC
[8] = test system: DLD-1 colon
[9] = test system: XF 498 CNS
[10] = test system: P388 leukemia

SMILES	TGI [2]	TGI [3]	TGI [5]	TGI [6]	TGI [7]	TGI [8]	other results
CC(=O)n1c(COS(C)(=O)=O)nc2ccccc21	> 100 µM	> 100 µM					TGI [1]: > 100 µM
CC1=C(C)C(=O)c2c(cc3ccc4ccccc4n23)C1=O			> 100 µM	> 100 µM	> 100 µM	> 100 µM	TGI [4]: > 100 µM
N#Cc1c(Sc2ccccc2N)cccc1Sc1ccccc1N							GI50 [1]: 49.1 µM; GI50 [3]: 51.7 µM
O=C(O)c1c(-c2cccc3ccccc23)sc(-c2cccc3ccccc23)c1C(=O)O			> 100 µM	> 100 µM	> 100 µM	> 100 µM	TGI [9]: > 100 µM
CN1CC[C@@H](c2c(O)cc(O)c3c(=O)cc(-c4ccccc4Cl)oc23)[C@@H](O)C1			0.334 µM		> 68.6 µM	> 100 µM	TGI [9]: 0.533 µM; GI50 [1]: 0.124 µM and 0.0494 µM; TGI [1]: 0.349 µM and 0.148 µM; GI50 [2]: 0.0655 µM and 0.0735 µM; GI50 [3]: 0.0824 µM and 0.0669 µM and 0.0342 µM
CC1OC(OCC2OC(Oc3c(-c4ccc(O)cc4)oc4cc(O)cc(O)c4c3=O)C(OC3OCC(O)(CO)C3O)C(O)C2O)C(O)C(O)C1O (stereo not drawn)			> 100 µM	> 100 µM	> 100 µM	> 100 µM	TGI [4]: > 100 µM
Cc1ccc(OCC(=O)N2N=C(c3ccccc3)CC2(O)c2ccccc2)cc1 (stereo not drawn)					> 100 µM	> 100 µM	TGI [9]: > 100 µM; TGI [4]: > 100 µM
COc1cc(CCc2ccc(OCCN(C)C)cc2)cc(OC)c1OC			> 100 µM	> 100 µM	> 100 µM	> 100 µM	TGI [9]: 93.7 µM; TGI [4]: > 100 µM
CC[C@H](C)N(CCN)C(=O)c1cc2ccccc2c(-c2ccccc2Cl)n1			28 µM		10.4 µM		
COc1ccc2c(c1)[nH]c(=O)c1c3cc(C)c(C)cc3cn21	1.58 µM	2.9 µM					GI50 [2]: < 0.01 µM; GI50 [3]: 1.17 µM
N#CCC1COc2ccccc2O1 (stereo not drawn)	> 10 µM	> 10 µM					TGI [1]: > 10 µM
C=CCn1c2c(c3ccccc3c1=O)C(=O)c1ccccc1-2	> 100 µM	> 100 µM					TGI [1]: > 100 µM
CN1CCN(CN2C(=O)C3C4C=CC(C3C2=O)C2C3C(=O)N(CN5CCN(C)CC5)C(=O)C3C42)CC1 (stereo not drawn)	97.9 µM	> 100 µM	36.8 µM and 37.7 µM and 35.5 µM	71 µM and 34.4 µM and > 100 µM	35.9 µM and 32.7 µM and 57.3 µM	49.7 µM and 41 µM and 52.4 µM	GI50 [6]: 34.4 µM and 13 µM and 48.6 µM; TGI [1]: 32.5 µM
O=C(O)CSc1n[nH]c(-c2ccc(O)cc2)n1			> 100 µM	> 100 µM		> 100 µM	TGI [9]: > 100 µM; TGI [4]: > 100 µM
O=C(c1ccccc1)C(C(=O)c1ccccc1)C1(O)C(=O)c2ccccc2C1=O				> 100 µM	> 100 µM		TGI [9]: > 100 µM
O=C(CNc1nncs1)NO			> 100 µM	> 100 µM	> 100 µM	> 100 µM	
N#Cc1cn(C2OC(CO)C(O)C2O)c2ncnc(N)c12 (stereo not drawn)						> 272 µM	GI50 [10]: 0.00528 µM and 0.045 µM; TGI [10]: 0.137 µM and 0.0463 µM; GI50 [9]: 0.045 µM; TGI [9]: 0.013 µM and 0.0663 µM; GI50 [6]: 0.0557 µM; GI50 [1]: 0.0281 µM; GI50 [8]: 0.0277 µM
COc1ccc(-c2nc3sc(C)cn3c2/C=C/C(=O)c2cc(OC)c(OC)c(OC)c2)cc1	7.17 µM	8.94 µM					GI50 [2]: 2.28 µM; GI50 [3]: 2.42 µM
COc1cc(-c2nn(-c3ccc(NC(=O)c4ccc(Cl)c(Cl)c4)cc3)cc2-c2ccncc2)ccc1Cl	> 100 µM	> 100 µM					GI50 [2]: 6.28 µM; GI50 [3]: 3.76 µM
COc1cc(/C(C#N)=C/c2ccc3c(c2OC)OCO3)cc2c1OCO2	> 78.4 µM	> 83.6 µM					GI50 [2]: 0.0967 µM; GI50 [3]: 6.18 µM
CC1=C(C(=O)Nc2ccccc2C)C(c2ccccc2)C(C(=O)Nc2ccccc2C)=C(C)N1			> 100 µM	> 100 µM	> 100 µM	> 100 µM	TGI [9]: 83.2 µM
CCOc1ccccc1NC(=O)C(=O)CC(=O)c1c(C)n([O-])c2ccccc2[n+]1=O			> 100 µM	> 100 µM	> 100 µM		
COc1cc(O)c([C@@H]2C[C@H](CCc3ccc(O)cc3)O[C@H](c3ccc(O)cc3)C2)c(O)c1C(=O)/C=C/c1ccc(O)cc1	6.94 µM	9.77 µM					GI50 [2]: 2.45 µM; GI50 [3]: 2.93 µM
CC1=C(C(=O)Nc2c(C)cccc2C)C(c2ccc3c(c2)OCO3)C(C(=O)Nc2c(C)cccc2C)=C(C)N1			38.1 µM	48.2 µM	43.9 µM	86.8 µM	TGI [4]: 42.3 µM
Cc1nc2c(nc1C)C(=O)c1cc(O)ccc1C2=O			> 90.6 µM	> 100 µM	> 100 µM	> 86.8 µM	
Nc1nc(SCc2ccccn2)c2ncn(C3CCCC3)c2n1	> 100 µM	> 100 µM					TGI [1]: > 100 µM
CN(C)c1cccc2c(S(=O)(=O)N[C@H]3CC[C@H]4[C@@H]5CCc6cc(O)ccc6[C@H]5CC[C@]34C)cccc12	> 100 µM	30.1 µM					GI50 [2]: 2.36 µM; GI50 [3]: 3.47 µM
